The data set deals with rodent carcinogenicity bioassays, tumor incidence. Briefly: CCRIS carcinogenicity studies. The method in brief: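 NCI-built, expert-reviewed records of carcinogenicity and related test outcomes (mutagenicity, tumor promotion/inhibition) compiled from published and report sources, historical span 1985-2011, not updated.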

The results in this text go back to PubChem BioAssay AID1259411 (Chemical Carcinogenesis Research Information System (CCRIS), 2018).

Active and inactive are the calls of the source. The rule behind the calls is not given here.

Take `O=c1cc(CO)occ1O`: the carcinogen call by setting is: (Species: MOUSE, Strain/Sex: B6C3F1/FEMALE, Route: ORAL, Dose: 0, 1.5, 3% IN DIET FOR 20 MONTHS (STUDY DURATION: 20 MONTHS), Dose: 0, 1.5, 3% IN DIET FOR 20 MONTHS (STUDY DURATION: 20 MONTHS), Tumor Site: Type of Lesion: THYROID: ADENOMA. LIVER: HEPATOMA) “active; positive”; (Species: MOUSE, Strain/Sex: B6C3F1/MALE, Route: ORAL, Dose: 0, 1.5, 3% IN DIET FOR 20 MONTHS (STUDY DURATION: 20 MONTHS), Dose: 0, 1.5, 3% IN DIET FOR 20 MONTHS (STUDY DURATION: 20 MONTHS), Tumor Site: Type of Lesion: THYROID: ADENOMA) “active; positive”; (Species: Rat, Strain/Sex: F344/Male (20/experimental group (10 killed at 31 wk & 10 killed at 44 wk); 15/controls), Route: Oral, Dose: Kojic acid at 2.0% in drinking water for 31 wk, recovery for 13 wk, study duration 44 wk, Dose: Kojic acid at 2.0% in drinking water for 31 wk, recovery for 13 wk, study duration 44 wk, Tumor Site: Type of Lesion: Thyroid: 1 adenoma at 44 wk) “inactive; negative (however, significantly greater increase in thyroid follicular cell hyp”.

For the compound `COC(=O)C1=C(C)NC(C)=C(C(=O)OCC(C)(C)CN(C)Cc2ccccc2)C1c1cc([N+](=O)[O-])ccc1F` (centres undefined), the carcinogen call is, setting by setting: (Species: RAT, Strain/Sex: F344/FEMALE, Route: ORAL, Dose: 0, 0.67, 2, 6 MG/KG/D IN DIET FOR 104 WK (STUDY DURATION: 104 WK), Dose: 0, 0.67, 2, 6 MG/KG/D IN DIET FOR 104 WK (STUDY DURATION: 104 WK)) “inactive; negative”; (Species: RAT, Strain/Sex: F344/MALE, Route: ORAL, Dose: 0, 0.67, 2, 6 MG/KG/D IN DIET FOR 104 WK (STUDY DURATION: 104 WK), Dose: 0, 0.67, 2, 6 MG/KG/D IN DIET FOR 104 WK (STUDY DURATION: 104 WK)) “inactive; negative”.

`O=C(O)c1cc2ccccc2c(N=Nc2ccccc2)c1O`: the carcinogen call was “inactive; negative” (Species: MOUSE, Strain/Sex: ICR/FEMALE, Route: DERMAL, Dose: 0, 1 MG IN 0.1 ML DISTILLED WATER 2/WK FOR A MEAN TOTAL DOSE OF 122.2 MG (STUDY DURATION: 18 MO)) and “inactive; negative” (Species: MOUSE, Strain/Sex: ICR/MALE, Route: DERMAL, Dose: 0, 1 MG IN 0.1 ML DISTILLED WATER 2/WK FOR A MEAN TOTAL DOSE OF 122.2 MG (STUDY DURATION: 18 MO)).

Consider `O=S1(=O)CCCO1`, for which the carcinogen call was “active; positive” (Species: MOUSE, Strain/Sex: ICR/FEMALE, Route: SUBCUTANEOUS, Dose: 0.3 MG IN WATER 1/WK FOR 63 WK, Tumor Site: Type of Lesion: INJECTION SITE: ADENOACANTHOMA, SARCOMA); “active; positive” (Species: RAT, Strain/Sex: STRAIN-BD, Route: SUBCUTANEOUS, Dose: 15, 30 MG/KG IN ARACHIS OIL 1/WK FOR 1 YR, Tumor Site: Type of Lesion: INJECTION SITE: MYOSARCOMA, FIBROSARCOMA); “active; positive” (Species: RAT, Strain/Sex: STRAIN-BD, Route: SUBCUTANEOUS, Dose: 15, 30 MG/KG IN WATER 1/WK FOR 1 YR, Tumor Site: Type of Lesion: INJECTION SITE: SARCOMA); “active; positive” (Species: RAT, Strain/Sex: STRAIN-CD/FEMALE, Route: GAVAGE, Dose: 28, 56 MG/KG IN WATER 2/WK FOR 78 WK (LOW DOSE) OR 32 WK (HIGH DOSE), Tumor Site: Type of Lesion: BRAIN (CEREBELLUM, CEREBRUM): MALIGNANT GLIOMA, MAMMARY GLAND: ADENOCARCINOMA); “active; positive” (Species: RAT, Strain/Sex: STRAIN-CD/MALE, Route: GAVAGE, Dose: 28, 56 MG/KG IN WATER 2/WK FOR 78 WK (LOW DOSE) OR 32 WK (HIGH DOSE), Tumor Site: Type of Lesion: BRAIN (CEREBELLUM, CEREBRUM): MALIGNANT GLIOMA).

With `Clc1c(Cl)c(Cl)c(Cl)c(Cl)c1Cl`, the carcinogen call is, setting by setting: (Species: HAMSTER, Route: ORAL, Tumor Site: Type of Lesion: THYROID GLAND, LIVER) “active; positive”; (Species: MOUSE, Route: ORAL, Tumor Site: Type of Lesion: LIVER) “active; positive”; (Species: RAT, Strain/Sex: F344/FEMALE, Route: ORAL, Dose: 0, 0.02% IN DIET FOR 30 WK (STUDY DURATION: 35 WK)) “inactive; negative”; (Species: RAT, Strain/Sex: F344/FEMALE, Route: ORAL, Dose: 0, 0.02% OF DIET FOR 90 WK (STUDY DURATION: 90 WK), Tumor Site: Type of Lesion: LIVER: HEPATOCELLULAR CARCINOMA OR NEOPLASTIC NODULE) “active; positive”; (Species: RAT, Strain/Sex: F344/MALE, Route: ORAL, Dose: 0, 0.02% IN DIET FOR 30 WK (STUDY DURATION: 35 WK)) “inactive; negative”; (Species: RAT, Strain/Sex: F344/MALE, Route: ORAL, Dose: 0, 0.02% OF DIET FOR 90 WK (STUDY DURATION: 90 WK)) “inactive; negative”.

Consider `C=COC(N)=O`, for which the carcinogen call (Species: MOUSE, Strain/Sex: B6C3F1/MALE, Route: INTRAPERITONEAL, Dose: 0, 2.5 UG/G BW IN 10 µL TRIOCTANOIN ONCE (STUDY DURATION: 9 MO), Tumor Site: Type of Lesion: LIVER: HEPATOMA) is “active; positive”; the carcinogen call (Species: MOUSE, Strain/Sex: CD-1/FEMALE, Route: DERMAL, Dose: 0, 11.5 UMOL IN WEEKS 1 AND 2 THEN 5.7 UMOL IN WEEKS 3 AND 4 FOLLOWED BY 3.8 UMOL/WK FOR 28 WK (STUDY DURATION: 42 WK), Tumor Site: Type of Lesion: SKIN: PAPILLOMA, CARCINOMA) is “active; positive”; the carcinogen call (Species: MOUSE, Strain/Sex: STRAIN-A/FEMALE, Route: INTRAPERITONEAL, Dose: 0, 34, 68 NMOL/G BW IN 5 µL TRIOCTANOIN ONCE (STUDY DURATION: 6 MO), Dose: 0, 34, 68 NMOL/G BW IN 5 µL TRIOCTANOIN ONCE (STUDY DURATION: 6 MO), Tumor Site: Type of Lesion: LUNG: ADENOMA) is “active; positive”; the carcinogen call (Species: RAT, Strain/Sex: SPRAGUE-DAWLEY/FEMALE, Route: INTRAMUSCULAR, Dose: 0, 1.15, 2.3 UMOL IN 0.25 ML TRIOCTANOIN 1/WK FOR 10 WK (STUDY DURATION: 18 MO), Dose: 0, 1.15, 2.3 UMOL IN 0.25 ML TRIOCTANOIN 1/WK FOR 10 WK (STUDY DURATION: 18 MO)) is “inactive; negative”.

As for `O=NN1CCC(=O)NC1=O`, the carcinogen call runs as follows: (Species: RAT, Strain/Sex: WISTAR/FEMALE, Route: ORAL, Dose: 0, 450 MG/L CITRATE BUFFER SOLUTION IN DRINKING WATER 5D/WK FOR AN AVERAGE TOTAL DOSE OF 0, 950 MG (STUDY DURATION: 28 W, Dose: 0, 450 MG/L CITRATE BUFFER SOLUTION IN DRINKING WATER 5D/WK FOR AN AVERAGE TOTAL DOSE OF 0, 950 MG (STUDY DURATION: 28 W, Tumor Site: Type of Lesion: LIVER: CARCINOMA) “active; positive”; (Species: RAT, Strain/Sex: WISTAR/MALE, Route: ORAL, Dose: 0, 450 MG/L CITRATE BUFFER SOLUTION IN DRINKING WATER 5D/WK FOR AN AVERAGE TOTAL DOSE OF 0, 1250 MG (STUDY DURATION: 32, Dose: 0, 450 MG/L CITRATE BUFFER SOLUTION IN DRINKING WATER 5D/WK FOR AN AVERAGE TOTAL DOSE OF 0, 1250 MG (STUDY DURATION: 32, Tumor Site: Type of Lesion: LIVER: CARCINOMA, KIDNEY: ADENOMA) “active; positive”.
